Measurements: patent US7482321B2, “Extended glucagon-like peptide-1 analogs” (Eli Lilly and Company, priority 2002, dated 2009)
“And” between values parts separate entries of the source, which are not always exact repeats. Identical values can stand only once. Like-named read-outs stand apart in the source and are kept apart here. Marks after values point to notes of the source that are not given here. Ends that are not written are not given here.

How the values were obtained:
in vivo = settings: Sprague Dawley, rat, iv, 10 ug/kg, Plasma Concentration
[1] = rat, in vivo, iv, 10 ug/kg
[2] = Dog hyperglycemic clamp study, GLP-1 peptide concentration; parameters: species or system dogs; settings: in vivo, iv
Experimental: Several different extended and non-extended GLP-1 peptides were tested for activity in a hyperglycemic clamp study in dogs. Glucose was infused for 200 minutes to maintain constant levels. For the first 80 minutes dogs were infused intravenously with vehicle to establish a baseline insulin concentration. For the next 60 minutes, GLP-1 peptides were administered at a rate of 1 pmol/kg/min. For the final 60 minutes the infusion rate of each GLP-1 compound was increased to 3 pmol/kg/min. Blood samples were taken periodically for the determination of insulin and GLP-1 peptide concentrations. Insulin change values were calculated as the difference between the value at time t and the average value during the last 20 minutes of the control period (60-80) minutes and are presented in Table 3. Areas under the insulin change curves were calculated using the trapezoidal rule over the last 30 minutes of each infusion period. Values listed are the means±standard error of the mean (SEM).

[3] = Pharmacokinetics after single intravenous dose in rats; settings: single i.v. 10 μg/kg; for level at 5 min / level at 0.25 h / level at 0.5 h / level at 1 h / level at 2 h: Sprague Dawley, plasma, Plasma Concentration; for level at 1 h: 60 min; for AUC0-last / Cl / Cmax / Vss / t½ / AUC(0-t) / clearance / Vd / half-life: Sprague Dawley rats; for AUC(0-t): AUC0-last; for clearance: Cl; for Vd: Vss; for half-life: t½
[4] = rat, iv, 10 ug/kg, 5 min, Mean of 4 rats
[5] = rat, iv, 10 ug/kg, 5 min, individual rats
[6] = rat, iv, 10 ug/kg, 15 min, Mean of 4 rats
[7] = rat, iv, 10 ug/kg, 15 min, individual rats
[8] = rat, iv, 10 ug/kg, 30 min, Mean of 4 rats
[9] = rat, iv, 10 ug/kg, 30 min, individual rats
[10] = rat, iv, 10 ug/kg, Mean of 4 rats (values below LLOQ taken as zero)
[11] = rat, iv, 10 ug/kg, individual rats
[12] = rat, iv, 10 ug/kg, 120 min, individual rats
[13] = rat, in vivo, iv, 10 ug/kg, Mean of 4 rats
[14] = rat, in vivo, iv, 10 ug/kg, individual rats
[15] = rat, in vivo, iv, 10 ug/kg, Cmax, Mean of 4 rats
[16] = rat, in vivo, iv, 10 ug/kg, Cmax, individual rats
[17] = infusion rate 1 pmol/kg/min i.v., dog hyperglycemic clamp, after 60 minutes of infusion, mean ± SEM, read-out: Compound Concentration (t = 60′)
[18] = infusion rate 3 pmol/kg/min i.v., dog hyperglycemic clamp, after 60 minutes of infusion, mean ± SEM, read-out: Compound Concentration (t = 60′)

Compound	level at time molar at 1 h ([2]; dog, 1 pmol/kg/min)	level at time molar at 1 h ([2]; dog, 3 pmol/kg/min)	Plasma Concentration ([3]; 120 min, individual rats)	level at 5 min [3, 4]	level at 0.25 h [3, 6]	level at 0.5 h [3, 8]	level at 1 h [3, 10]	AUC0-last ([3]; individual rats)	Cl ([3]; individual rats)	Cmax ([3]; individual rats)	Vss ([3]; individual rats)	t½ ([3]; individual rats)	AUC(0-t) [3, 13]	AUC(0-t) [3, 14]	clearance [3, 13]	clearance [3, 14]	Cmax [3, 15]	Vd [3, 13]	half-life [3, 13]	other results
HVEGTFTSDWSSYLEEQAAKEFIAWLIKGRGSSGAPPPS [Compound 5]	–	–	–	–	–	–	–	–	–	–	–	–	–	–	–	–	–	–	–	level at 5 min (in vivo): 35.9 ng/mL; level at 0.25 h (in vivo): 16.1 ng/mL; level at 2 h (in vivo): < 0.15 ng/mL; AUC(0-t) ([1]; AUC0-last): 12.5 ng·h/mL; clearance ([1]; Cl): 13.4 mL/min/kg; Cmax ([1]; Cmax): 35.9 ng/mL; Vd ([1]; Vss): 0.179 L/kg; half-life ([1]; t½): 11.9 min
HVEGTFTSDVSSYLEEQAVKEFIAWLIKGGPSSGAPPPRG [SEQ ID NO:48]	0.227 ± 0.04 nM	1.09 ± 0.106 nM	–	–	–	–	–	–	–	–	–	–	–	–	–	–	–	–	–	–
CC[C@H](C)[C@H](NC(=O)[C@H](Cc1ccccc1)NC(=O)[C@H](CCC(=O)O)NC(=O)[C@H](CCCCN)NC(=O)[C@H](C)NC(=O)[C@H](C)NC(=O)[C@H](CCC(N)=O)NC(=O)CNC(=O)[C@H](CCC(=O)O)NC(=O)[C@H](CC(C)C)NC(=O)[C@H](Cc1ccc(O)cc1)NC(=O)[C@H](CO)NC(=O)[C@H](CO)NC(=O)[C@@H](NC(=O)[C@H](CC(=O)O)NC(=O)[C@H](CO)NC(=O)[C@@H](NC(=O)[C@H](Cc1ccccc1)NC(=O)[C@@H](NC(=O)CNC(=O)[C@H](CCC(=O)O)NC(=O)[C@@H](NC(=O)[C@@H](N)Cc1c[nH]cn1)C(C)C)[C@@H](C)O)[C@@H](C)O)C(C)C)C(=O)N[C@@H](C)C(=O)N[C@@H](Cc1c[nH]c2ccccc12)C(=O)N[C@@H](CC(C)C)C(=O)N[C@H](C(=O)N[C@@H](CCCCN)C(=O)NCC(=O)N[C@@H](CCCNC(=N)N)C(=O)NCC(=O)N[C@@H](CO)C(=O)N[C@@H](CO)C(=O)NCC(=O)N[C@@H](C)C(=O)N1CCC[C@H]1C(=O)N1CCC[C@H]1C(=O)N1CCC[C@H]1C(=O)N[C@@H](CO)C(=O)O)C(C)C [Compound 4]	–	–	<150 ^a pg/mL	23.6 ng/mL	9.86 ng/mL	3.18 ng/mL	0.636 ng/mL	486.7 ng·min/mL and 424.9 ng·min/mL and 461.5 ng·min/mL	20.5 mL/min/kg and 23.5 mL/min/kg and 21.7 mL/min/kg	24.9 ng/mL and 20.0 ng/mL and 24.0 ng/mL	0.2511 L/kg and 0.3159 L/kg and 0.2492 L/kg	11.9 min and 11.2 min and 11.0 min	8.05 ng·h/mL	9.33 ng·h/mL	20.9 mL/min/kg	17.9 mL/min/kg	23.6 ng/mL	0.269 L/kg	11.5 min	Plasma Concentration ([3]; 5 min, individual rats): 24853 pg/mL; level at 5 min [3, 5]: 25.4 ng/mL; level at 0.25 h [3, 7]: 12.1 ng/mL; level at 0.5 h [3, 9]: 4.37 ng/mL; level at 1 h [3, 11]: 0.869 ng/mL; level at 2 h [3, 12]: < 0.15 ng/mL; Cmax [3, 16]: 25.4 ng/mL; Vd [3, 14]: 0.259 L/kg; half-life [3, 14]: 12 min
HVEGTFTSDVSSYLEEQAAKEFIAWLVKGRGSSGAPPPS [Compound 3]	–	–	<150 ^a pg/mL	23.2 ng/mL	8.81 ng/mL	3.44 ng/mL	0.657 ng/mL	465.6 ng·min/mL and 492.5 ng·min/mL and 409.1 ng·min/mL	21.5 mL/min/kg and 20.3 mL/min/kg and 24.4 mL/min/kg	22.7 ng/mL and 24.3 ng/mL and 21.1 ng/mL	0.2805 L/kg and 0.2624 L/kg and 0.3134 L/kg	11.7 min and 12.0 min and 14.4 min	7.96 ng·h/mL	7.78 ng·h/mL	21 mL/min/kg	21.4 mL/min/kg	23.3 ng/mL	0.277 L/kg	12.1 min	Plasma Concentration ([3]; 15 min, individual rats): 8467 pg/mL; level at 5 min [3, 5]: 23.6 ng/mL; level at 0.25 h [3, 7]: 8.6 ng/mL; level at 0.5 h [3, 9]: 3 ng/mL; level at 1 h [3, 11]: 0.566 ng/mL; level at 2 h [3, 12]: < 0.15 ng/mL; Cmax [3, 16]: 23.6 ng/mL; Vd [3, 14]: 0.263 L/kg; half-life [3, 14]: 11.6 min
HVEGTFTSDVSSYLEEQAVKEFIAWLIKGGPSSGAPPPS-NH2 [SEQ ID NO:13]	0.366 ± 0.059 nM	1.32 ± 0.211 nM	–	–	–	–	–	–	–	–	–	–	–	–	–	–	–	–	–	–
HVEGTFTSDVSSYLEEQAVKEFIAWLIKGGPSSGAPPPS [SEQ ID NO:42]	0.276 ± 0.036 nM	1.11 ± 0.139 nM	–	–	–	–	–	–	–	–	–	–	–	–	–	–	–	–	–	–
HVEGTFTSDVSSYLEEQAAKEFIAWLIKGGPSSGDPPPS-NH2 [Compound 1]	–	–	<150 ^a pg/mL	23.5 ng/mL	9.61 ng/mL	3.1 ng/mL	0.554 ng/mL	478.8 ng·min/mL and 448.5 ng·min/mL and 469.4 ng·min/mL	20.9 mL/min/kg and 22.3 mL/min/kg and 21.3 mL/min/kg	24.1 ng/mL and 22.8 ng/mL and 22.4 ng/mL	0.2463 L/kg and 0.2657 L/kg and 0.2704 L/kg	10.1 min and 10.9 min	7.92 ng·h/mL	8.41 ng·h/mL	21.1 mL/min/kg	19.8 mL/min/kg	23.5 ng/mL	0.264 L/kg	11 min	level at time molar at 1 h [2, 17]: 0.268 ± 0.045 nM; level at time molar at 1 h [2, 18]: 0.977 ± 0.135 nM; Plasma Concentration ([3]; 30 min, individual rats): 3119 pg/mL; level at 5 min [3, 5]: 24.6 ng/mL; level at 0.25 h [3, 7]: 10 ng/mL; level at 0.5 h [3, 9]: 3.12 ng/mL; level at 2 h [3, 12]: < 0.15 ng/mL; Cmax [3, 16]: 24.6 ng/mL; Vd [3, 14]: 0.273 L/kg; half-life [3, 14]: 13.1 min
HVEGTFTSDVSSYLEEQAAKEFIAWLIKGGPSSGDPPPS [Compound 2]	–	–	<150 ^a pg/mL	17.3 ng/mL	6.82 ng/mL	2.95 ng/mL	1.05 ng/mL	312.2 ng·min/mL and 430.0 ng·min/mL and 409.1 ng·min/mL	32.0 mL/min/kg and 23.3 mL/min/kg and 24.4 mL/min/kg	9.8 ng/mL and 16.9 ng/mL and 21.4 ng/mL and 21.1 ng/mL	0.9739 L/kg and 0.3557 L/kg and 0.2833 L/kg and 0.3134 L/kg	35.8 min and 12.3 min and 10.6 min and 14.4 min	6.93 ng·h/mL	8.55 ng·h/mL	24.8 mL/min/kg	19.5 mL/min/kg	17.3 ng/mL	0.482 L/kg	18.3 min	level at time molar at 1 h [2, 17]: 0.204 ± 0.024 nM; level at time molar at 1 h [2, 18]: 0.755 ± 0.072 nM
HVEGTFTSDVSSYLEEQAVKEFIAWLIKGGPSSGAPPPSH [SEQ ID NO:43]	0.306 ± 0.02 nM	1.06 ± 0.034 nM	–	–	–	–	–	–	–	–	–	–	–	–	–	–	–	–	–	–
HVEGTFTSDVSSYLEEQAVKEFIAWLIKGRGSSGAPPPS [SEQ ID NO:35]	0.267 ± 0.031 nM	1.04 ± 0.103 nM	–	–	–	–	–	–	–	–	–	–	–	–	–	–	–	–	–	–
HVEGTFTSDVSSYLEEQAAKEFIAWLIKGGPSSGAPPPS [SEQ ID NO:55]	0.246 ± 0.017 nM	0.766 ± 0.046 nM	–	–	–	–	–	–	–	–	–	–	–	–	–	–	–	–	–	–
